# Measured values published in patent US10363257B2 (ZENITH EPIGENETICS LTD., priority 2013, dated 2019).
# pIC50: −log10 of the molar value.
# How the values were obtained:
# [1] = target: T1, Brd4 bromodomain 1 (BRD4(1)) (Homo sapiens, UniProt O60885); assay: Inhibition of tetra-acetylated histone H4 binding to Brd4 bromodomain 1 (TR-FRET); details: tetra-acetylated histone H4 peptide, first bromodomain of Brd4
# T1 construct: made in house; host or cells: E. coli BL21(DE3)
# How it was run: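 Serially diluted compound (0.2% DMSO) incubated 2 h at room temperature with 200 nM N-His BRD4 bromodomain 1 and 25-50 nM biotinylated tetra-acetyl H4 peptide, detected via Eu-streptavidin/XL665 anti-His. Loss of 665 nm relative to 620 nm signal gave IC50 from dose-response.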
# [2] = tested on: c-myc; assay: Inhibition of c-myc expression (mRNA, real-time PCR) in MV4-11 cells; assay type: cell-based; details: Human AML MV4-11 cells, 3 h, cMYC mRNA
# How it was run: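 One-step TaqMan qPCR of cMYC, normalized to an internal control with Cyclophilin probes run, gave fold expression versus DMSO (0.1%) control. Samples: triplicate MV4-11 wells exposed 3 h at 37° C to rising compound concentrations in IMDM with 10% FBS.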
# [3] = tested on: human AML MV-4-11 cells; assay: Inhibition of cell proliferation in MV4-11 cells (CellTiter Aqueous One); assay type: cell-based; details: MV4-11, 72 h
# How it was run: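 IC50 values come from blank-corrected proliferation relative to DMSO controls, read as 490 nm absorbance 3–4 h after CellTiter Aqueous One addition. Before that, cells seeded at 5×10^4/well were exposed for 72 h (37° C, 5% CO2) to triplicate two-fold compound dilutions spanning 30–0.2 μM.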
# [4] = tested on: hIL-17 mRNA; assay: Inhibition of hIL-17 mRNA transcription in OKT3-stimulated peripheral blood mononuclear cells; assay type: cell-based; details: PBMC, human peripheral blood mononuclear cells, OKT3 antibody, 6 h, read-out: IL-17 activity
# Method: In this example, hIL-17 mRNA in human peripheral blood mononuclear cells was quantitated to measure the transcriptional inhibition of hIL-17 when treated with a compound of the invention.
# Human peripheral blood mononuclear cells were plated (2.0×10^5 cells per well) in a 96-well plate in 45 μL OpTimizer T Cell expansion media containing 20 ng/ml IL-2 and penicillin/streptomycin. The cells were treated with the test compound (45 μL at 2× concentration), and then the cells were incubated at 37° C. for 1 h before addition of 10× stock OKT3 antibody at 10 μg/ml in media. Cells were incubated at 37° C. for 6 h before the cells were harvested. At time of harvest, cells were centrifuged (800 rpm, 5 min). Spent media was removed and cell lysis solution (70 μL) was added to the cells in each well and incubated for 5-10 min at room temperature, to allow for complete cell lysis and detachment. mRNA was then prepared using the “mRNA Catcher PLUS plate” (Invitrogen), according to the protocol supplied. After the last wash, as much wash buffer as possible was aspirated without allowing the wells to dry. Elution buffer (E3, 70 μL) was then added to each well. mRNA was then eluted by incubating the mRNA Catcher PLUS plate with Elution Buffer for 5 min at 68° C. and then immediately placing the plate on ice.
# The eluted mRNA isolated was then used in a one-step quantitative RT-PCR reaction, using components of the Ultra Sense Kit together with Applied Biosystems primer-probe mixes. Real-time PCR data was analyzed, normalizing the Ct values for hIL-17 to an internal control, prior to determining the fold induction of each unknown sample, relative to the control.
# [5] = tested on: MV4-11 cells; assay: In vivo efficacy in athymic nude mouse acute myeloid leukemia xenograft model using MV4-11 cells; details: MV4-11 AML xenograft, oral, 75 mg/kg b.i.d and 120 mg/kg b.i.d
# Method: MV4-11 cells (ATCC) are grown under standard cell culture conditions and (NCr) nu/nu fisol strain of female mice age 6-7 weeks are injected with 5×10^6 cells/animal in 100 μL PBS+100 μL Matrigel in the lower left abdominal flank. By approximately day 18 after MV4-11 cells injection, mice are randomized based on tumor volume (L×W×H)/2) of average ˜120 mm^3. Mice are dosed orally with compound at 75 mg/kg b.i.d and 120 mg/kg b.i.d in EA006 formulation at 10 mL/kg body weight dose volume. Tumor measurements are taken with electronic micro calipers and body weights measured on alternate days beginning from dosing period. The average tumor volumes, percent Tumor Growth Inhibition (TGI) and % change in body weights are compared relative to Vehicle control animals. The means, statistical analysis and the comparison between groups are calculated using Student's t-test in Excel.
structure (smiles),measurement,setting,value
"Cc1noc(C)c1-c1cc(N)c2ncn(Cc3ccccc3)c2c1 [Example Compound 7, 1-Benzyl-6-(3,5-dimethylisoxazol-4-yl)-1H-benzo[d]imidazol-4-amine]",pIC50,[1],≥ 6.52
same,pIC50,[2],5.52 to 6.52
same,pIC50,[3],≥ 6.52
same,pIC50,[4],≥ 6.52
same,In vivo activity,[5],Active
